The values below come from PubChem BioAssay (NCI).

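Compound exposure: 48 hours, 5 concentrations, 96-well plates. GI50 is the concentration that inhibits growth by half. At the TGI there is no net growth.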 Where only a bound is given, the exact number is not on record here.

The assay relates to MDA-MB-468 breast. In words: DTP human tumour cell line panel, 48 h.
Broadly, the GI50 is the concentration giving 50% growth inhibition. A word on the TGI: it is the concentration at which net growth stops. `COC(=O)Nc1nc2ccc(C(=O)c3ccccc3)cc2[nH]1`: the GI50 is 0.338 µM and the TGI is > 100 µM.

As to `O=CN1N=C(c2cccc(Nc3ccnc4cc(Cl)ccc34)c2)CC1c1ccccc1` (centres undefined), the GI50 was 0.205 µM and the TGI was found to be 0.656 µM.

For the compound `C[C@H]1COCCN1c1cc(C2(S(=O)(=O)C3CC3)CC2)nc(-c2ccc(NC(=S)NCCO)cc2)n1`, the GI50 was < 0.0108 µM and the TGI came to 0.0936 µM.

For `Cn1ccnc1C(=O)/C=C/c1ccc(CNC(=O)c2ccc(S(F)(F)(F)(F)F)cc2)cc1`, the GI50 was 3.54 µM and the TGI was found to be 8.71 µM.

Consider `C=C1SC(=Nc2ccccc2Cl)N(C(=O)c2sc3ccccc3c2Cl)C12CCCCC2`, for which the GI50 was 4.91 µM and the TGI was > 100 µM.

On to `O=C(CI)Nc1ccc(O)c2ccccc12`, for which the GI50 was 0.9 µM and the TGI was 2.57 µM.

With `COc1ccc(/C=C2\SC(=Nc3ccccc3)NC2=O)cc1`, the GI50 is 3.18 µM and the TGI came to 22 µM.

In the case of `Cn1nc(C(F)(F)F)c(-c2cc(C(F)(F)F)cc(C(F)(F)F)c2)c1-c1ccc(OCc2ccc(Cl)cc2)cc1O`, the GI50 was 1.43 µM and the TGI is 6.36 µM.

For the compound `C=C1C(=O)O[C@H]2[C@H]1CC/C(Cn1cc(-c3ccc(F)cc3)nn1)=C\CC[C@@]1(C)O[C@@H]21`, the GI50 is 0.421 µM and the TGI amounted to 1.58 µM.

Consider `Cc1ccc2c(c1)C(=O)c1c-2c(OCCCN(C)C)nc2ccccc12`, for which the GI50 is 1.43 µM and the concentration for total growth inhibition (TGI) worked out at 3.35 µM.

Consider `C[C@H]1CNC(=O)c2cnn3ccc(nc23)N[C@H](C)c2cc(F)ccc2O1`, for which the GI50 is 1.85 µM and the TGI was 14.6 µM.

Consider `CC(C)=CC(=O)N[C@H]1CC[C@]2(C)C3CC[C@]4(C)C(C(C)N(C)C)=CCC4C3CCC2[C@H]1O` (some centres undefined), for which the GI50 is 1.65 µM and the TGI was found to be 6.33 µM.

Turning to `C=C1C(=O)O[C@H]2[C@H]1CC/C(COC(=O)CCCc1c[nH]c3ccccc13)=C\CC[C@@]1(C)O[C@@H]21`, the GI50 is 1.76 µM and the TGI is 4.01 µM.

As for `Cc1cc(OCCOCCC(F)(F)P(=O)(O)O)ccc1CCc1cnc2c(N)nc3cc(CCC(=O)O)ccc3c2c1`, the GI50 was > 100 µM and the TGI was > 100 µM.

For `CCCCCCCCCCCCCC[n+]1ccc(C(N)=O)cc1`, the GI50 was 0.401 µM and the TGI was 2.76 µM.

With `COC1=CC(c2ccc[nH]2)=N/C1=C\c1[nH]c(C)c(CC(=O)OCc2ccccc2)c1C`, the GI50 is 0.595 µM and the total growth inhibition concentration (TGI) is 2.45 µM.

Turning to `COC(=O)c1c2c(c(C)[n+]([O-])c1C)C(=O)C=C(NCc1cccc(Cl)c1)C2=O`, the GI50 is 0.225 µM and the TGI is 0.732 µM.

Turning to `NC(N)=NC(N)=NCCCc1ccco1`, the GI50 was 81.8 µM and the TGI was 196 µM.

`CC([C@H]1CC=C2C3CCC4=C[C@@H](N(C)C)CC[C@]4(C)C3CC[C@@]21C)N(C)C` (some centres undefined): the GI50 is 1.42 µM and the TGI came to 4.72 µM.

Turning to `Clc1ccc2nc(CI)c(CI)nc2c1`, the GI50 is 4.7 µM and the TGI amounted to 19.1 µM.

Consider `C[C@]12CC[C@H]3[C@@H](CC4SC(N)=NC45C/C(=N/NC(N)=O)CC[C@]35C)[C@@H]1CCC2=O` (some centres undefined), for which the GI50 was 1.6 µM and the TGI stood at 3.17 µM.

Turning to `CN(C)CCCC1(c2ccc(F)cc2)OCc2cc(-c3cc4ccccc4s3)ccc21` (centres undefined), the GI50 is 1.74 µM and the TGI was found to be 3.41 µM.

Regarding `Cn1c(-c2ccccc2)c(/C=C/C2=[N+](C)c3ccccc3C2(C)C)c2ccccc21`, the GI50 was 0.343 µM and the TGI came out at 2.85 µM.

`Nc1nc2cc(CC[C@H]3C[C@@H](n4ccc5c(N)ncnc54)[C@H](O)[C@@H]3O)ccc2cc1Br`: the GI50 is 0.234 µM and the concentration for total growth inhibition (TGI) stood at 7.98 µM.

Take `CCCCCCCCCCCCCCCCOP(=O)([O-])OCC[N+](C)(C)C`: the GI50 was 1.16 µM and the TGI worked out at 3.56 µM.

With `C=C1C(=O)O[C@H]2[C@H]1CC/C(COC(=O)OC/C1=C/CC[C@@]3(C)O[C@H]3[C@H]3OC(=O)[C@@H](CN(C)C)[C@@H]3CC1)=C\CC[C@@]1(C)O[C@@H]21`, the GI50 is 1.35 µM and the TGI is 4 µM.

Consider `O=C1C(=O)c2ccccc2C(O)=C1CCCc1ccc(C2CCCCC2)cc1`, for which the GI50 is 2.2 µM and the TGI amounted to 21.5 µM.

Turning to `CCCCCCCC(=O)SCC/C=C/[C@@H]1CC(=O)NCc2nc(cs2)C2=N[C@@](C)(CS2)C(=O)N[C@@H](C(C)C)C(=O)N1`, the GI50 was < 0.0119 µM and the concentration for total growth inhibition (TGI) came to 1.21 µM.

For `C[n+]1c2ccccc2nc2ccccc21`, the GI50 is 0.711 µM and the TGI worked out at 2.69 µM.

In the case of `COc1ccc(NC(=O)c2sc3nc(C)c(C(=O)/C=C/c4cccc(OC)c4)cc3c2N)cc1`, the GI50 was 0.732 µM and the TGI was found to be 2.24 µM.

As for `O=C(/C=C1\C(=O)N(Cc2ccccc2)c2ccccc21)c1ccc(OCCN2CCCCC2)cc1`, the GI50 is 1.92 µM and the TGI is 3.8 µM.

As for `CC(=O)O[C@H]1C(=O)[C@@]2(C)[C@H]([C@H](OC(=O)c3ccccc3)[C@]3(O)C[C@H](OC(=O)[C@H](OC(=O)OC[C@H]4COC(C)(C)O4)[C@@H](NC(=O)c4ccccc4)c4ccccc4)C(C)=C1C3(C)C)[C@]1(OC(C)=O)CO[C@@H]1C[C@@H]2O`, the GI50 was 0.0273 µM.

With `O=C(Nc1ccc(F)cc1)Nc1ccc(Br)c(C(F)(F)F)c1`, the GI50 was 2.22 µM and the TGI was determined as 9.54 µM.

On to `N#C/C(=N\Nc1ccccc1)C(=O)Nc1cc(-c2ccccc2)nn1-c1ccccc1`, for which the GI50 was 1.42 µM and the TGI is 5.88 µM.

`COc1ccc(/C(C#N)=C/c2cc(OC)c(OC)c(OC)c2)cc1`: the GI50 was 19.2 µM and the TGI was > 100 µM.
